For this test, the system named is 354836-022-R-J1-PDC multicell spheroid viability. Put plainly: Anticancer human tumor 354836-022-R-J1-PDC patient-derived head and neck squamous cell carcinoma cell line growth inhibition [PI3K]. The settings on record: for viability, T/C: stronger effect = lower value. The text has this:
Combinatorial screen of targeted agents with the PI3K inhibitors inavolisib, alpelisib, duvelisib, and copanlisib in multi-cell type tumor spheroids
A high-throughput screen of multi-cell type tumor spheroids was designed to identify active combinations of targeted small molecules and PI3K pathway inhibitors. Complex spheroids include a stromal component modeled by human endothelial cells (HUVEC) and fibroblasts modeled by human mesenchymal stem cells (MSCs). The concentration ranges selected for each drug and investigational agent were based upon clinically achievable concentrations if the clinical Cmax of the agent was known.
Compounds. The drugs and investigational agents: inavolisib (NSC800729), alpelisib (NSC765974), duvelisib (NSC772469), copanlisib (NSC816437), ipatasertib (NSC767898), afuresertib (NSC778305), talazoparib (NSC767125), sapanisertib (NSC764658), selumetinib (NSC741078), tovorafenib (DAY101, NSC766906), vemurafenib (NSC761431), ravoxertinib (NSC781343), sotorasib (NSC818433), MRTX1133 (NSC 836407), abemaciclib (NSC 768073), palbociclib (NSC758247), venetoclax (NSC 766270), SY5609 (NSC837396), enzalutamide (NSC755605), and darolutamide (NSC825331), were obtained from the National Cancer Institute (NCI) Developmental Therapeutics Program Chemical Repository. The FDA-approved anticancer drug set is available from the NCI Developmental Therapeutics Program. […] The stock solutions were prepared in dimethyl sulfoxide (DMSO, Sigma-Aldrich, St. Louis, MO, cat. D2650) at 800-fold the tested concentration and stored at -70 degrees C prior to their use. All drugs and investigational agents were tested over a range starting from a high concentration at or near the clinical Cmax and decreasing in half-log increments. If the clinical Cmax for an agent had not been determined, the highest concentration tested was 10 microM.
Cell Culture. All cells were maintained in an incubator at 37 degrees C and 5% CO2 with 95% humidity. The PDC lines were cultured according to standard operating procedures established by the NCI PDMR (https://pdmr.cancer.gov/sops/default.htm). All PDCs were thawed and cultured in Matrigel-coated flasks prepared with a working solution of 1X Ham's F-12 nutrient mix, without supplementation (Invitrogen, Waltham, MA, cat. 11765054), 100 U/mL penicillin-streptomycin (Invitrogen, cat. 15140122), and 2.5% Matrigel (Corning Inc., Corning, NY, cat. 354248) for the first three passages. The 354836-022-R-J1-PDC, 475296-252-R-J1-PDC, and 997726-040-R-J2-PDC lines were cultured in 6A media, which includes advanced DMEM/F-12 (Thermo Fisher Scientific, cat. 12634028), 10 mM HEPES (Thermo Fisher Scientific, cat. 15630080), 1X GlutaMAX supplement (Thermo Fisher Scientific, cat. 35050061), 0.1 mg/mL primocin (InvivoGen, San Diego, CA, cat. ant-pm-2), 10% defined fetal bovine serum, heat inactivated (HyClone Laboratories Inc., Logan, UT, cat. SH30070.03HI), 50% L-WRN conditioned media (ATCC, cat. CRL-3276), 1.25 mM N-Acetyl-L-cysteine (Sigma-Aldrich, cat. A9165), 10 mM nicotinamide (Sigma-Aldrich, cat. N0636), 1X B-27 supplement (Thermo Fisher Scientific, cat. 17504044), 1X N-2 supplement (Thermo Fisher Scientific, cat. 17502048), and 10 microM Y-27632 dihydrochloride (Tocris Bioscience, Bristol, United Kingdom, cat. 1254). The 624824-186-R-J2-PDC line was cultured in 6C/Colon 1B media, which includes all 6A media components plus 50 ng/mL human EGF recombinant protein (Thermo Fisher Scientific, cat. PHG0311). […]
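Also: spheroids exposed to agents for seven days before the viability read.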

Regarding `C#Cc1c(F)ccc2cc(O)cc(-c3ncc4c(N5CC6CCC(C5)N6)nc(OCC56CCCN5CC(F)C6)nc4c3F)c12` (stereo not drawn), the viability, T/C is 101% [middle of 4 runs] (compound 0.0316 µM); 101% [middle of 4 runs] (compound 0.1 µM); 87.7% [middle of 4 runs] (compound 1 µM); 95.4% [middle of 4 runs] (compound 3.16 µM); 90.5% [middle of 4 runs] (compound 10 µM). Also, the IC50 (curve of compound) was more than 10 µM.
For `C=CC(=O)N1CCN(c2nc(=O)n(-c3c(C)ccnc3C(C)C)c3nc(-c4c(O)cccc4F)c(F)cc23)C(C)C1` (stereo not drawn), the viability, T/C (compound 0.0316 µM) is 114% [middle of 4 runs]; the viability, T/C (compound 0.1 µM) was 95.3% [middle of 4 runs]; the viability, T/C (compound 0.316 µM) is 99.3% [middle of 4 runs]; the viability, T/C (compound 10 µM) is 95.1% [middle of 4 runs]. Moreover, the IC50 (curve of compound) was more than 10 µM.
As for `CC1(C)CCC(Nc2ncc(C(F)(F)F)c(-c3c[nH]c4c(P(C)(C)=O)c(C#N)ccc34)n2)CN1` (stereo not drawn), the viability, T/C is 21.9% [middle of 4 runs] (compound 0.0316 µM); 19.9% [middle of 4 runs] (compound 0.1 µM); 20.8% [middle of 4 runs] (compound 0.316 µM); 21.9% [middle of 4 runs] (compound 1 µM); 32% [middle of 4 runs] (compound 3.16 µM); 2.79% [middle of 4 runs] (compound 10 µM). Also, the IC50 (curve of compound) was less than 0.0316 µM.
For `CCCS(=O)(=O)Nc1ccc(F)c(C(=O)c2c[nH]c3ncc(-c4ccc(Cl)cc4)cc23)c1F`, the viability, T/C by setting is: (compound 0.1 µM) 109% [middle of 4 runs]; (compound 0.316 µM) 104% [middle of 4 runs]; (compound 1 µM) 91.5% [middle of 4 runs]; (compound 3.16 µM) 86% [middle of 4 runs]; (compound 10 µM) 24.8% [middle of 4 runs]. In addition, the IC50 (curve of compound) was 6.06 µM [middle of 4 runs].
In the case of `Cn1ncc(Cl)c1-c1cc(C(=O)NC(CN)Cc2cccc(F)c2)sc1Cl` (stereo not drawn), the viability, T/C (compound 0.0316 µM) was 83.5% [middle of 4 runs]; the viability, T/C (compound 0.1 µM) is 51.3% [middle of 4 runs]; the viability, T/C (compound 0.316 µM) was 35.9% [middle of 4 runs]; the viability, T/C (compound 1 µM) was 22.7% [middle of 4 runs]; the viability, T/C (compound 3.16 µM) was 15.5% [middle of 4 runs]; the viability, T/C (compound 10 µM) is 5.55% [middle of 4 runs]. Further, the IC50 (curve of compound) was 114 nM [middle of 4 runs].
Consider `Cn1cnc2c(F)c(Nc3ccc(Br)cc3Cl)c(C(=O)NOCCO)cc21` + CC(Nc1ccc2c(c1)OCCn1cc(N3C(=O)OCC3C(F)F)nc1-2)C(N)=O, for which the IC50 (curve of first compound, second compound 0.00316 µM) is more than 3 µM; the IC50 (curve of first compound, second compound 0.01 µM) is more than 3 µM; the IC50 (curve of first compound, second compound 0.0316 µM) was more than 3 µM; the IC50 (curve of first compound, second compound 0.1 µM) was more than 3 µM; the IC50 (curve of first compound, second compound 0.316 µM) was found to be 2.27 µM; the IC50 (curve of first compound, second compound 1 µM) is 0.252 µM. Moreover, the viability, T/C by setting is: (second compound 0.00316 µM, first compound 0.00949 µM) 98%; (second compound 0.00316 µM, first compound 0.03 µM) 75.2%; (second compound 0.00316 µM, first compound 0.0949 µM) 92.6%; (second compound 0.00316 µM, first compound 0.3 µM) 78%; (second compound 0.00316 µM, first compound 0.949 µM) 79.2%; (second compound 0.00316 µM, first compound 3 µM) 54.9%. Besides, the viability, T/C is, setting by setting: (second compound 0.01 µM, first compound 0.00949 µM) 93.2%; (second compound 0.01 µM, first compound 0.03 µM) 78.7%; (second compound 0.01 µM, first compound 0.0949 µM) 87%; (second compound 0.01 µM, first compound 0.3 µM) 78.7%; (second compound 0.01 µM, first compound 0.949 µM) 75.6%; (second compound 0.01 µM, first compound 3 µM) 56%. Further, the viability, T/C (second compound 0.0316 µM, first compound 0.00949 µM) was 90%; the viability, T/C (second compound 0.0316 µM, first compound 0.03 µM) is 97.1%; the viability, T/C (second compound 0.0316 µM, first compound 0.0949 µM) is 96%; the viability, T/C (second compound 0.0316 µM, first compound 0.3 µM) was 83.5%; the viability, T/C (second compound 0.0316 µM, first compound 0.949 µM) was 83.7%; the viability, T/C (second compound 0.0316 µM, first compound 3 µM) was 65.1%. Besides, the viability, T/C reads like this: (second compound 0.1 µM, first compound 0.00949 µM) 88.4%; (second compound 0.1 µM, first compound 0.03 µM) 87.3%; (second compound 0.1 µM, first compound 0.0949 µM) 84.2%; (second compound 0.1 µM, first compound 0.3 µM) 80.5%; (second compound 0.1 µM, first compound 0.949 µM) 81.6%; (second compound 0.1 µM, first compound 3 µM) 55.9%. The viability, T/C (second compound 0.316 µM, first compound 0.00949 µM) was 80.9%; the viability, T/C (second compound 0.316 µM, first compound 0.03 µM) was 81%; the viability, T/C (second compound 0.316 µM, first compound 0.0949 µM) is 67.1%; the viability, T/C (second compound 0.316 µM, first compound 0.3 µM) is 68%; the viability, T/C (second compound 0.316 µM, first compound 0.949 µM) is 63.4%; the viability, T/C (second compound 0.316 µM, first compound 3 µM) is 45.4%. Further, the viability, T/C by setting is: (second compound 1 µM, first compound 0.00949 µM) 72.2%; (second compound 1 µM, first compound 0.03 µM) 57.1%; (second compound 1 µM, first compound 0.0949 µM) 55.4%; (second compound 1 µM, first compound 0.3 µM) 52.8%; (second compound 1 µM, first compound 0.949 µM) 40.8%; (second compound 1 µM, first compound 3 µM) 24.7%.

(Values after PubChem BioAssay AID1963981 (Molecular Pharmacology Branch, DTP, NCI, 2024).)
